These results are taken from patent publication US8916702B2 (priority 2012, dated 2014).

This experiment relates to HCV pseudoparticles (genotype 1a HCV E1 and E2 envelope, H77C isolate). Kind of experiment: microbe, parasite or virus in culture. The experiment is classed as cell-based. The conditions noted are these: Hepatitis C virus.
The mark [1] stands for this setting: Huh-7, 48 h, read-out: Activity (EC50 class), HCV pseudoparticles, Huh7 cells, luciferase 2 days after infection, average of duplicates.
Setting [2] is: Huh-7, read-out: Activity (EC50 class), HCV pseudoparticles (genotype 1a, H77C) in Huh7 cells, EC50 expressed as class A/B.
[3] abbreviates: Huh-7, 48 h, read-out: Activity (EC50 class), HCV pseudoparticle infection of Huh7 cells, luciferase 2 days after infection, EC50 expressed as class A/B.

Read-outs that look alike come from different tables or passages of the source.

In the case of `CC(C)(CNC(=O)C(=O)Nc1ccc(-c2nc3ccccc3o2)cc1)CNC(=O)c1ccc(Nc2nc(NC3(c4ccc(Cl)cc4)CC3)nc(OCC(F)(F)F)n2)cc1` [Compound 3831], under setting [1], the EC50 lay in the range of 0.01 to 10 nM.

Regarding `COC(=O)[C@H](CNC(=O)C(=O)Nc1cccc(C(=O)c2ccccc2)c1)NC(=O)c1ccc(Nc2nc(NC3(c4ccc(Cl)cc4)CC3)nc(OCC(F)(F)F)n2)cc1` [Compound 3692], the concentration for a half-maximal effect (EC50) under setting [1] lay in the range of 0.01 to 10 nM.

Take `O=C(NCCCCNC(=O)c1ccc(Nc2nc(NC3(c4ccc(Cl)cc4)CC3)nc(OCC(F)(F)F)n2)cc1)C(=O)NCc1ccc(F)cc1` [Compound 3392]: under setting [2], the EC50 lay within 0.01 to 10 nM.

On to `COC(=O)[C@H](CNC(=O)C(=O)Nc1ccc(Cc2ccncc2)cc1)NC(=O)c1ccc(Nc2nc(NC3(c4ccc(Cl)cc4)CC3)nc(OCC(F)(F)F)n2)cc1` [Compound 3094], for which, under setting [2], the EC50 was in the range of 0.01 to 10 nM.

Regarding `CC(C)(CNC(=O)C(=O)Nc1cccnc1-n1cccn1)CNC(=O)c1ccc(Nc2nc(NC3(c4ccc(Cl)cc4)CC3)nc(OCC(F)(F)F)n2)cc1` [Compound 3256], under setting [2], the EC50 is 0.01 to 10 nM.

Turning to `O=C(NCCC(NC(=O)c1ccc(Nc2nc(NC3(c4ccc(Cl)cc4)CC3)nc(OCC(F)(F)F)n2)cc1)C(=O)O)C(=O)Nc1ccc(Oc2ccc(F)cc2)cc1` (stereo not drawn) [Compound 3522], the concentration giving a half-maximal response (EC50) under setting [2] is 10 to 1000 nM.

Turning to `COc1cccc(NC(=O)C(=O)NCC(C)(C)CNC(=O)c2ccc(Nc3nc(NC4(c5ccc(Cl)cc5)CC4)nc(OCC(F)(F)F)n3)cc2)n1` [Compound 3252], the EC50 under setting [2] lay in the range of 0.01 to 10 nM.

For the compound `COc1cccc(NC(=O)C(=O)NC[C@H](NC(=O)c2ccc(Nc3nc(NC4(c5ccc(Cl)cc5)CC4)nc(OCC(F)(F)F)n3)cc2)C(=O)O)c1` [Compound 1358], the half-maximal effective concentration (EC50) under setting [3] is 0.01 to 10 nM.

On to `CC(C)(CNC(=O)C(=O)Nc1ccc(OC(F)(F)F)cc1)CNC(=O)c1ccc(Nc2nc(NC3(c4ccc(Cl)cc4)CC3)nc(OCC(F)(F)F)n2)cc1` [Compound 3145], for which the EC50 under setting [2] lay within 0.01 to 10 nM.

As for `O=C(NCC[C@H](NC(=O)c1ccc(Nc2nc(NC3(c4ccc(Cl)cc4)CC3)nc(OCC(F)(F)F)n2)cc1)C(=O)O)C(=O)Nc1ccc(N2CCN(Cc3ccccc3)CC2)cc1` [Compound 3232], the 50% effective concentration (EC50) under setting [2] is 0.01 to 10 nM.

In the case of `COc1ccccc1CCNC(=O)C(=O)NC[C@H](NC(=O)c1ccc(Nc2nc(NC3(c4ccc(Cl)cc4)CC3)nc(OCC(F)(F)F)n2)cc1)C(=O)O` [Compound 1397], the EC50 under setting [3] was in the range of 0.01 to 10 nM.

On to `O=C(NCC[C@H](NC(=O)c1ccc(Nc2nc(NC3(c4ccc(Cl)cc4)CC3)nc(OCC(F)(F)F)n2)cc1)C(=O)O)C(=O)NCc1c(F)cccc1F` [Compound 1190], for which the concentration giving a half-maximal response (EC50) under setting [3] was 0.01 to 10 nM.

Turning to `CC(C)(CNC(=O)C(=O)NS(C)(=O)=O)CNC(=O)c1ccc(Nc2nc(NC3(c4ccc(Cl)cc4)CC3)nc(OCC(F)(F)F)n2)cc1` [Compound 3031], under setting [2], the half-maximal effective concentration (EC50) lay in the range of 0.01 to 10 nM.

For the compound `CC(C)(C)OC(=O)NC1CCC(NC(=O)C(=O)NC[C@H](NC(=O)c2ccc(Nc3nc(NC4(c5ccc(Cl)cc5)CC4)nc(OCC(F)(F)F)n3)cc2)C(=O)O)CC1` (stereo partly drawn) [Compound 1085], the EC50 under setting [3] was in the range of 0.01 to 10 nM.

For the compound `CC(C)(CNC(=O)C(=O)Nc1cccc(C(=O)N2CCCCC2)c1)CNC(=O)c1ccc(Nc2nc(NC3(c4ccc(Cl)cc4)CC3)nc(OCC(F)(F)F)n2)cc1` [Compound 1574], under setting [3], the EC50 was 0.01 to 10 nM.

As for `COC(=O)[C@H](CCNC(=O)C(=O)Nc1nccn1C)NC(=O)c1ccc(Nc2nc(NC3(c4ccc(Cl)cc4)CC3)nc(OCC(F)(F)F)n2)cc1` [Compound 1222], under setting [3], the concentration for a half-maximal effect (EC50) was 0.01 to 10 nM.

In the case of `CCOC(=O)[C@H](CCCNC(=O)C(N)=O)NC(=O)c1ccc(Nc2nc(NC3(c4ccc(Cl)cc4)CC3)nc(OCC(F)(F)F)n2)cc1` [Compound 1029, (S)-ethyl 5-(2-amino-2-oxoacetamido)-2-(4-(4-(1-(4-chlorophenyl)cyclopropylamino)-6-(2,2,2-trifluoroethoxy)-1,3,5-triazin-2-ylamino)benzamido)pentanoate], the EC50 under setting [3] lay in the range of 0.01 to 10 nM.

`Cc1cc2cccc(NC(=O)C(=O)NCC(C)(C)CNC(=O)c3ccc(Nc4nc(NC5(c6ccc(Cl)cc6)CC5)nc(OCC(F)(F)F)n4)cc3)c2o1` [Compound 3354]: the EC50 under setting [2] fell in the range of 0.01 to 10 nM.

In the case of `Cc1ccc(NC(=O)C(=O)NCC(C)(O)CNC(=O)c2ccc(Nc3nc(NC4(c5ccc(Cl)cc5)CC4)nc(OCC(F)(F)F)n3)cc2)cc1` (stereo not drawn) [Compound 3832], under setting [1], the half-maximal effective concentration (EC50) is 0.01 to 10 nM.

For the compound `O=C(Cc1ccc(F)cc1F)C(=O)NCC(O)CNC(=O)c1ccc(Nc2nc(NC3(c4ccc(Cl)cc4)CC3)nc(OCC(F)(F)F)n2)cc1` (stereo not drawn) [Compound 3459], the EC50 under setting [2] fell in the range of 0.01 to 10 nM.

For `O=C(NC[C@H](NC(=O)c1ccc(Nc2nc(NC3(c4ccc(Cl)cc4)CC3)nc(OCC(F)(F)F)n2)cc1)C(=O)O)C(=O)Nc1cccc(Cc2ccccc2)c1` [Compound 3770], the EC50 under setting [1] is 0.01 to 10 nM.

For the compound `COC(=O)[C@H](CCNC(=O)C(=O)Nc1ccc(Oc2cccnc2)cc1)NC(=O)c1ccc(Nc2nc(NC3(c4ccc(Cl)cc4)CC3)nc(OCC(F)(F)F)n2)cc1` [Compound 3324], the half-maximal effective concentration (EC50) under setting [2] was 0.01 to 10 nM.

Regarding `COC(=O)[C@H](CCNC(=O)C(=O)NCc1ccc(OC)c(OC)c1)NC(=O)c1ccc(Nc2nc(NC3(c4ccc(Cl)cc4)CC3)nc(OCC(F)(F)F)n2)cc1` [Compound 1144], the concentration giving a half-maximal response (EC50) under setting [3] was 0.01 to 10 nM.

For `Nc1ccc(NC(=O)C(=O)NC[C@H](NC(=O)c2ccc(Nc3nc(NC4(c5ccc(Cl)cc5)CC4)nc(OCC(F)(F)F)n3)cc2)C(=O)O)nc1` [Compound 3761], the 50% effective concentration (EC50) under setting [1] fell in the range of 0.01 to 10 nM.

For `CC(C)(CNC(=O)c1ccc(Nc2nc(NC3(c4ccc(Cl)cc4)CC3)nc(OCC(F)(F)F)n2)cc1)NC(=O)C(=O)NCc1ccc(F)cc1` [Compound 3419], the concentration for a half-maximal effect (EC50) under setting [2] was in the range of 0.01 to 10 nM.

Regarding `O=C(NC[C@H](NC(=O)c1ccc(Nc2nc(NC3(c4ccc(Cl)cc4)CC3)nc(OCC(F)(F)F)n2)cc1)C(=O)O)C(=O)Nc1ccc(-n2cnnn2)cc1` [Compound 3276], the EC50 under setting [2] is 0.01 to 10 nM.

`CC1CCCC(NC(=O)C(=O)NCC[C@H](NC(=O)c2ccc(Nc3nc(NC4(c5ccc(Cl)cc5)CC4)nc(OCC(F)(F)F)n3)cc2)C(=O)O)C1` (stereo partly drawn) [Compound 1125]: the EC50 under setting [3] was 0.01 to 10 nM.

As to `CC(C)(CNC(=O)C(=O)Nc1ccc(CC(=O)N2CCCC2)cc1)CNC(=O)c1ccc(Nc2nc(NC3(c4ccc(Cl)cc4)CC3)nc(OCC(F)(F)F)n2)cc1` [Compound 1592], under setting [3], the half-maximal effective concentration (EC50) lay within 0.01 to 10 nM.

Take `COC(=O)[C@H](CCNC(=O)C(=O)Nc1ccc(OCc2ccccc2)cc1)NC(=O)c1ccc(Nc2nc(NC3(c4ccc(Cl)cc4)CC3)nc(OCC(F)(F)F)n2)cc1` [Compound 3118]: the 50% effective concentration (EC50) under setting [2] was in the range of 0.01 to 10 nM.

For `O=C(NCC1CCCCC1)C(=O)NC[C@@H](NC(=O)c1ccc(Nc2nc(NC3(c4ccc(Cl)cc4)CC3)nc(OCC(F)(F)F)n2)cc1)C(=O)O` [Compound 1039], the concentration giving a half-maximal response (EC50) under setting [3] was in the range of 0.01 to 10 nM.

As to `COC(=O)/C(CCNC(=O)C(=O)Nc1cccc(Cc2ccccc2)c1)=N\C(=O)c1ccc(Nc2nc(NC3(c4ccc(Cl)cc4)CC3)nc(OCC(F)(F)F)n2)cc1` [Compound 3592], the EC50 under setting [2] lay in the range of 10 to 1000 nM.

As for `Cc1ccc2nc(NC(=O)C(=O)NCC(C)(C)CNC(=O)c3ccc(Nc4nc(NC5(c6ccc(Cl)cc6)CC5)nc(OCC(F)(F)F)n4)cc3)sc2c1` [Compound 3826], under setting [1], the EC50 fell in the range of 0.01 to 10 nM.

Regarding `COC(=O)[C@H](CCNC(=O)C(=O)NCc1c(F)cccc1F)NC(=O)c1ccc(Nc2nc(NC3(c4ccc(Cl)cc4)CC3)nc(OCC(F)(F)F)n2)cc1` [Compound 1158], the half-maximal effective concentration (EC50) under setting [3] fell in the range of 0.01 to 10 nM.

The term EC50 denotes the concentration that produces a half-maximal response.
